Laboratory results published in the NIST ThermoML archive (doi:10.1021/je500431h).
Numbers after ± are expanded uncertainties.

Assay: xn = mol fraction of the nth substance listed
Conditions: 101 kPa, Liquid; for mass density: Pycnometric method; for electrical conductivity: conductivity meter LF 340 and a standard conductivity cell TetraCon

C=CCn1cc[n+](CCOC)c1.O=S(=O)([N-]S(=O)(=O)C(F)(F)F)C(F)(F)F + O=S(=O)([N-]S(=O)(=O)C(F)(F)F)C(F)(F)F.[Li+]
Conditions | electrical conductivity [S/m] | mass density [kg/m3] | viscosity [mPa·s]
308 K, x2 = 0.176 | – | 1480.1 ± 2.4 | 56.2 ± 2.4
308 K, x2 = 0.2508 | – | 1505.3 ± 2.3 | 72.2 ± 3.5
308 K, x2 = 0.3254 | – | 1525.3 ± 2.5 | 116.4 ± 8
308.2 K, x2 = 0.176 | 0.3 ± 0.018 | – | –
308.2 K, x2 = 0.4001 | 0.0856 ± 0.0051 | – | –
308.7 K, x2 = 0 | 0.546 ± 0.033 | – | –
308.7 K, x2 = 0.2508 | 0.228 ± 0.014 | – | –
308.8 K, x2 = 0.3254 | 0.16 ± 0.0096 | – | –
308.9 K, x2 = 0.1007 | 0.425 ± 0.026 | – | –
309 K, x2 = 0 | – | 1437 ± 2.2 | 23.7 ± 1
309 K, x2 = 0.1007 | – | 1459.7 ± 2.3 | 38 ± 1.7
309.2 K, x2 = 0.4001 | – | – | 221.6 ± 22
309.24 K, x2 = 0.4001 | – | 1551.1 ± 2.5 | –
313 K, x2 = 0.176 | – | 1475.4 ± 2.3 | 44.4 ± 2
313 K, x2 = 0.2508 | – | 1500.4 ± 2.4 | 57.1 ± 2.4
313 K, x2 = 0.3254 | – | 1520.3 ± 2.4 | 89.4 ± 4.9
313.3 K, x2 = 0 | 0.627 ± 0.038 | – | –
313.4 K, x2 = 0.4001 | 0.113 ± 0.0068 | – | –
313.5 K, x2 = 0.3254 | 0.2 ± 0.012 | – | –
313.9 K, x2 = 0.176 | 0.372 ± 0.022 | – | –
314 K, x2 = 0 | – | 1432.3 ± 2.2 | 20.3 ± 0.9
314 K, x2 = 0.4001 | – | 1546.3 ± 2.5 | 168.3 ± 14
314.4 K, x2 = 0.1007 | 0.514 ± 0.031 | – | –
314.4 K, x2 = 0.2508 | 0.284 ± 0.017 | – | –
315 K, x2 = 0.1007 | – | 1453.9 ± 2.2 | 27.9 ± 1.2
317 K, x2 = 0 | – | 1429.6 ± 2.2 | 17.8 ± 0.8
317 K, x2 = 0.2508 | – | 1496.4 ± 2.4 | 47.8 ± 2.1
317 K, x2 = 0.3254 | – | 1516.3 ± 2.4 | 75.1 ± 3.7
317.9 K, x2 = 0.2508 | 0.327 ± 0.02 | – | –
318 K, x2 = 0.176 | – | 1470.7 ± 2.3 | 35.8 ± 1.6
318 K, x2 = 0.4001 | – | 1542.3 ± 2.5 | 138.5 ± 10
318.1 K, x2 = 0 | 0.72 ± 0.043 | – | –
318.1 K, x2 = 0.4001 | 0.141 ± 0.0085 | – | –
319 K, x2 = 0.3254 | 0.248 ± 0.015 | – | –
319.2 K, x2 = 0.1007 | 0.596 ± 0.036 | – | –
319.5 K, x2 = 0.1007 | – | 1449.6 ± 2.2 | 22.8 ± 1
319.6 K, x2 = 0.176 | 0.453 ± 0.027 | – | –
322.4 K, x2 = 0.176 | 0.493 ± 0.03 | – | –
323 K, x2 = 0.176 | – | 1466 ± 2.3 | 29.6 ± 1.3
323 K, x2 = 0.3254 | – | 1510.4 ± 2.4 | 56.8 ± 2.4
323.3 K, x2 = 0 | 0.828 ± 0.05 | – | –
323.5 K, x2 = 0 | – | 1423.5 ± 2.2 | 14.6 ± 0.6
323.9 K, x2 = 0.3254 | 0.3 ± 0.018 | – | –
324 K, x2 = 0.2508 | – | 1489.5 ± 2.4 | 37.4 ± 1.6
324 K, x2 = 0.4001 | – | 1536.2 ± 2.5 | 100.9 ± 6.1
324.1 K, x2 = 0.4001 | 0.183 ± 0.011 | – | –
324.4 K, x2 = 0.1007 | 0.694 ± 0.042 | – | –
324.6 K, x2 = 0.2508 | 0.41 ± 0.025 | – | –
325.2 K, x2 = 0.1007 | – | 1444.2 ± 2.2 | 19.6 ± 0.9
327 K, x2 = 0.3254 | – | 1506.5 ± 2.4 | 49 ± 2.1
327.2 K, x2 = 0.1007 | – | 1442.3 ± 2.2 | 17.7 ± 0.8
327.2 K, x2 = 0.176 | – | 1462 ± 2.3 | 25.4 ± 1.1
327.5 K, x2 = 0.4001 | 0.214 ± 0.013 | – | –
327.9 K, x2 = 0 | 0.935 ± 0.056 | – | –
328 K, x2 = 0 | – | 1419.4 ± 2.2 | 13.1 ± 0.6
328 K, x2 = 0.2508 | – | 1485.6 ± 2.3 | 32.3 ± 1.4
328 K, x2 = 0.4001 | – | 1532.2 ± 2.5 | 82.1 ± 4.3
328.5 K, x2 = 0.2508 | 0.467 ± 0.028 | – | –
328.7 K, x2 = 0.176 | 0.588 ± 0.035 | – | –
328.8 K, x2 = 0.3254 | 0.353 ± 0.021 | – | –
328.9 K, x2 = 0.1007 | 0.778 ± 0.047 | – | –
332.9 K, x2 = 0 | 1.06 ± 0.063 | – | –
333.1 K, x2 = 0.3254 | 0.405 ± 0.024 | – | –
333.4 K, x2 = 0.2508 | 0.535 ± 0.032 | – | –
334 K, x2 = 0 | – | 1413.9 ± 2.2 | 11.2 ± 0.5
334 K, x2 = 0.1007 | 0.885 ± 0.053 | – | –
334 K, x2 = 0.176 | – | 1455.7 ± 2.3 | 20.4 ± 0.9
334 K, x2 = 0.2508 | – | 1479.8 ± 2.4 | 25.9 ± 1.1
334 K, x2 = 0.3254 | – | 1499.7 ± 2.4 | 37.1 ± 1.6
334 K, x2 = 0.4001 | – | 1526.3 ± 2.5 | 63.2 ± 2.8
334.2 K, x2 = 0.1007 | – | 1435.7 ± 2.2 | 15.3 ± 0.7
334.3 K, x2 = 0.4001 | 0.275 ± 0.017 | – | –
334.5 K, x2 = 0.176 | 0.691 ± 0.041 | – | –
337 K, x2 = 0.3254 | – | 1496.9 ± 2.4 | 32 ± 1.4
337.4 K, x2 = 0.2508 | 0.6 ± 0.036 | – | –
337.6 K, x2 = 0 | 1.18 ± 0.071 | – | –
338 K, x2 = 0.176 | – | 1452.1 ± 2.3 | 18.2 ± 0.8
338 K, x2 = 0.2508 | – | 1475.9 ± 2.3 | 22.9 ± 1
338.1 K, x2 = 0.1007 | – | 1432 ± 2.2 | 12.9 ± 0.6
338.5 K, x2 = 0 | – | 1409.9 ± 2.2 | 10 ± 0.4
338.5 K, x2 = 0.3254 | 0.474 ± 0.028 | – | –
338.9 K, x2 = 0.176 | 0.76 ± 0.046 | – | –
339 K, x2 = 0.1007 | 0.986 ± 0.059 | – | –
339 K, x2 = 0.4001 | – | 1521.4 ± 2.5 | 54.2 ± 2.2
339.3 K, x2 = 0.4001 | 0.323 ± 0.019 | – | –
343 K, x2 = 0 | 1.33 ± 0.08 | – | –
343 K, x2 = 0.3254 | – | 1491.1 ± 2.4 | 27.3 ± 1.2
343.2 K, x2 = 0.1007 | – | 1427.3 ± 2.2 | 11.4 ± 0.5
343.3 K, x2 = 0.3254 | 0.539 ± 0.032 | – | –
343.5 K, x2 = 0.2508 | 0.698 ± 0.042 | – | –
343.8 K, x2 = 0.176 | 0.858 ± 0.051 | – | –
344 K, x2 = 0 | – | 1404.9 ± 2.2 | 8.8 ± 0.4
344 K, x2 = 0.176 | – | 1446.6 ± 2.3 | 15.4 ± 0.7
344 K, x2 = 0.4001 | – | 1516.5 ± 2.5 | 44.8 ± 2
344.4 K, x2 = 0.4001 | 0.385 ± 0.023 | – | –
344.5 K, x2 = 0.1007 | 1.11 ± 0.066 | – | –
345 K, x2 = 0.2508 | – | 1469.2 ± 2.3 | 19.2 ± 0.8
347 K, x2 = 0.3254 | – | 1487.3 ± 2.4 | 24 ± 1
348 K, x2 = 0 | – | 1401.3 ± 2.2 | 8.2 ± 0.4
348.1 K, x2 = 0 | 1.48 ± 0.089 | – | –
348.2 K, x2 = 0.2508 | 0.784 ± 0.047 | – | –
348.3 K, x2 = 0.1007 | 1.19 ± 0.072 | – | –
348.5 K, x2 = 0.3254 | 0.62 ± 0.037 | – | –
348.6 K, x2 = 0.176 | 0.954 ± 0.057 | – | –
348.7 K, x2 = 0.4001 | 0.436 ± 0.026 | – | –
349 K, x2 = 0.1007 | – | 1421.9 ± 2.2 | 10.3 ± 0.5
349 K, x2 = 0.176 | – | 1442 ± 2.3 | 13.7 ± 0.6
349 K, x2 = 0.2508 | – | 1465.4 ± 2.3 | 17.1 ± 0.8
349 K, x2 = 0.4001 | – | 1511.6 ± 2.5 | 38 ± 1.7
352 K, x2 = 0 | 1.6 ± 0.096 | – | –
352.5 K, x2 = 0.2508 | 0.858 ± 0.051 | – | –
353.3 K, x2 = 0.3254 | 0.694 ± 0.042 | – | –
353.5 K, x2 = 0.4001 | 0.498 ± 0.03 | – | –
354.2 K, x2 = 0 | – | 1395.8 ± 2.2 | 7 ± 0.3
354.5 K, x2 = 0.1007 | – | 1416.9 ± 2.2 | 9.5 ± 0.4
354.9 K, x2 = 0.1007 | 1.35 ± 0.081 | – | –
354.9 K, x2 = 0.176 | 1.09 ± 0.065 | – | –
355 K, x2 = 0.176 | – | 1436.6 ± 2.2 | 11.9 ± 0.5
355 K, x2 = 0.2508 | – | 1459.8 ± 2.4 | 14.6 ± 0.6
355 K, x2 = 0.4001 | – | 1505.8 ± 2.5 | 31.7 ± 1.4
356 K, x2 = 0.3254 | – | 1478.8 ± 2.4 | 18.9 ± 0.8
